From patent publication US20050245473A1, “Proliferation- and differentiation-modulating agents and uses therefor” (priority 2003, published 2005)
“Also recorded” adds a separate entry of the source.

How the values were obtained:
Type in all cases: cell-based
[1] = system: keratin 10 promoter linked to a firefly luciferase gene (K10-Luc); test: K10-Luc reporter assay in transfected human epidermal keratinocytes (HEKs)
Description: (§1) Human epidermal keratinocytes (HEKs) were isolated and cultured from neonatal foreskins as described (1). The SCC cell line, KJD-1/SV40, were grown in culture as previously reported (2). Growth arrest and differentiation was induced by maintaining confluent cells in culture over 48 hours or by treatment with the protein kinase C (PKC) activator, 12-Otetradecanoyl-phorbol-13-acetate (TPA, 50 ng/ml for 48 hours). Both these treatment regimes induce robust and reproducible differentiation in HEKs but not in SCC cell lines (2, 41-43).
(§2) The human cdc2 promoter construct driving expression of a CAT reporter gene (cdc2-CAT) has been previously described (6). The 2.9kb transglutaminase type 1 promoter linked to a firefly luciferase gene (TG-1 Luc), keratin 10 reporter (K10-Luc), β actin-CAT reporter gene and β actin-luciferase reporter gene have also been previously described (2, 6, 41, 44, 45). β actin-CAT or β actin-Luc reporters were used to normalize for transfection efficiency. The CMV-E2F1 construct was a kind gift from Dr Kristian Helin (16). The CMV-E2F 2-5 constructs were generous gifts from Dr David Livingston (46). The mutant E2F1 constructs, 132E2F1 and 409E2F1, were kindly provided by Dr Joseph Nevins (47). The E2F1 dominant-negative (E2Fd/n) construct codes for amino acids 116-235, spanning for the DNA binding domain and heterodimerisation domain (2).
(§3) Transient transfections of cells were performed in 10 cm^2 well, when cells were either 50% or 100% confluent. Reporter activity was assayed 48 hours post-transfection. Transfection protocols for cultured HEKs using Lipofectamine™ (Invitrogen, Australia) and KJD-1/SV40 cells using Effectene (Qiagen, Australia) have been described previously (2). Transfections were performed in triplicate and repeated at least three times.
(§4) Chloramphenicol acetyltransferase assays (CAT) were performed using a CAT ELISA kit (Roche, Australia) as per manufacturer's instructions. The luciferase assay protocol has been previously reported (6, 41).

[2] = system: transglutaminase-1 promoter (TG-1 Luc) in KJD-1/SV40 cells; test: TG-1 Luc reporter assay in KJD-1/SV40 squamous cell carcinoma cells; details: proliferating KJD-1/SV40 cells; TPA 50 ng/ml for 48 hours where used; FIG. 6
Description: as §1
as §2, with “(2). […]” for “(2).”

[3] = system: transglutaminase type 1 promoter linked to a firefly luciferase gene (TG-1 Luc); test: TG-1 Luc reporter assay in transfected human epidermal keratinocytes (HEKs)
Description: as §1, §2, §3, §4

[4] = system: human cdc2 promoter (cdc2-CAT); test: cdc2-CAT reporter assay in transfected human epidermal keratinocytes (HEKs); details: proliferating HEKs co-transfected with expression plasmid
Description: as §1
as §2, with “(2). […]” for “(2).”

[5] = cultured HEKs induced to differentiate by treatment with TPA (50 ng/ml for 48 hours), FIG. 1
[6] = differentiated (confluent or TPA-treated) HEKs co-transfected with expression plasmid, assayed 48 hours post-transfection

Row | Compound | K10-Luc activity [1, 5] | TG-1 Luc activity [2] | TG-1 Luc activity [3, 5] | K10-Luc activity [1, 6] | TG-1 Luc activity [3, 6] | TG-1 Luc activity ([3]; proliferating HEKs transfected with E2Fd/n) | cdc2-CAT reporter activity (proliferation-specific marker) [4]
1 | CCCCCCCCCCCCCC(=O)O[C@@H]1[C@@H](C)[C@@]2(O)[C@@H](C=C(CO)C[C@]3(O)C(=O)C(C)=C[C@@H]23)[C@@H]2C(C)(C)[C@]12OC(C)=O [TPA, 12-O-tetradecanoylphorbol-13-acetate, reference compound] | increased | no induction | increased |  |  |  | 
2 | E2F1: E2F1 transcription factor overexpressed from the CMV-E2F1 expression plasmid |  |  |  | significantly suppressed | significantly suppressed; also recorded: suppresses |  | 
3 | E2Fd/n: E2F1 dominant-negative construct coding for amino acids 116-235, spanning the DNA binding domain and heterodimerisation domain |  | not altered |  | superinduces/derepresses | superinduce/derepress; also recorded: superinduces/derepresses | not sufficient to induce | suppression
